Measurements reported in US4540692A, “Anti-inflammatory N-(1-oxo-2,4,6-cycloheptatrienyl)2H-1,2-benzothiazine-3-carboxamide 1,1-dioxide derivatives, compositions, and method of use” (Fujisawa Pharmaceutical Co., Ltd., priority 1983, dated 1985).

Test system: carrageenin edema
Test: Carrageenin edema test
Assay type: in vivo, Sprague-Dawley rats
Settings: rat hind paw, 10 mg/kg oral, 60 minutes prior to carrageenin (0.1 ml, 1%); edema weight 3 hours after injection
Procedure: Five Sprague-Dawley rats were fasted for 24 hours and submitted to the study. First, 0.1 ml of carrageenin (1%) was subcutaneously injected into the paw of the right hind limb and after 3 hours the rat was sacrificed. The untreated limb and the edematous limb were respectively incised off at the junction of the tibia and weighed. The difference in weight between the edematous limb and the untreated limb was taken as the weight of the edema.
The test compound was orally administered 60 minutes prior to the administration of carrageenin and the swelling in the treated limb was compared with that in the control limb. The test compound was administered in a dose of 10 mg/kg.

With `CN1C(C(=O)Nc2cccccc2=O)=C(O)c2ccccc2S1(=O)=O` [Example 1, 4-hydroxy-2-methyl-N-(1-oxo-2,4,6-cycloheptatrien-2-yl)-2H-1,2-benzothiazine-3-carboxamide 1,1-dioxide] the “% Inhibition of carrageenin edema” value was 51.4%.
